# System: β-galactosidase
# Test: Testing effects of serum on native enzyme activity with DUG
# Format: biochemical
# Conditions: 0.02 mM DUG, 37°, 10 second delay, 30 second read
# Method: (2) Testing effects of serum on native enzyme activity with DUG:
# The procedure of c (1) above was followed using 50 µl of 1.75×PBS,N3, Mg+0.5% RSA and 50 μ1 β-galactosidase in place of serum and conjugate, respectively, and […] of 0.02mM DUG in 1.75×PBX, N3, Mg +0.5% RSA.
# The fluorescence rate was measured at 37° , 10 second delay, 30 second read.
substance,measurement,setting,value
β-galactosidase: native active enzyme used as label in the immunoassay,"ΔF/30 sec., Buffer",native enzyme in buffer,250 ΔF/30 sec.
same,"ΔF/30 sec., Serum",native enzyme in serum,230 ΔF/30 sec.

# Source: patent US4668620A, “Reducing background interference activity in enzyme-label immunoassays” (Syntex (U.S.A.) Inc., priority 1984, dated 1987)
